We go through 2 compounds from paper PMC5712356, “A New Ala-122-Asn Amino Acid Change Confers Decreased Fitness to ALS-Resistant Echinochloa crus-galli” (Frontiers in Plant Science, 2017).

The subject of the assay is T1, ALS (acetolactate synthase; acetohydroxyacid synthase, AHAS; EC 2.2.1.6).
T1 construct: not purified; polyploid species, ALS gene copies not separated
The assay can be described thus: acetoin (Westerfeld) colorimetric ALS assay, […] nm, log-logistic fit. Format: biochemical, Echinochloa crus-galli. The note with it: sub-population S (no known ALS mutation); Na-pyruvate, MgCl2, TPP, FAD, pH 7.0, 37 °C, 90 min; partially purified leaf extract; read-out: I50.

On to `COCc1cnc(C2=NC(C)(C(C)C)C(=O)N2)c(C(=O)O)c1` (centres unmarked) [Imazamox], for which the IC50 turned out to be 1740 nM.
For the compound `COc1cc(OC)nc(NC(=O)NS(=O)(=O)c2ncccc2C(=O)N(C)C)n1` [Nicosulfuron], the IC50 stood at 19 nM.
